According to PMC10528299, “Targeting FAK/PYK2 with SJP1602 for Anti-Tumor Activity in Triple-Negative Breast Cancer” (Current Issues in Molecular Biology, 2023):

Key:
Assay in all cases: Eurofins kinase profiling
Type in all cases: biochemical
[1] = target: T1, cKit(h) (Homo sapiens, UniProt P10721); conditions: read-out: residual kinase activity cKit(h)
T1 construct: purchased Eurofins KinaseProfiler
Protocol: (§1) The kinase profiling analysis was performed at Eurofins (Poitiers, France). A total of 110 kinase assays were carried out according to Eurofins’ standard protocols. For protein kinase assays, the kinase activity was measured using Eurofins’ KinaseProfiler radiometric assay. In this assay, a panel of kinases was incubated with the test compound SJP1602 at a concentration of 1 µM, and the kinase activity was determined using radiolabeled phosphate as a substrate. Lipid and atypical kinase assays were conducted using Eurofins’ homogeneous time-resolved fluorescence assay. The same panel of kinases was incubated with SJP1602 at a concentration of 1 µM, and the activity of lipid and atypical kinases was measured using this assay.

[2] = target: T2, DDR2(h) (Homo sapiens, UniProt Q16832); conditions: read-out: residual kinase activity DDR2(h)
T2 construct: purchased Eurofins KinaseProfiler
T2 sequence (Q16832 22-855): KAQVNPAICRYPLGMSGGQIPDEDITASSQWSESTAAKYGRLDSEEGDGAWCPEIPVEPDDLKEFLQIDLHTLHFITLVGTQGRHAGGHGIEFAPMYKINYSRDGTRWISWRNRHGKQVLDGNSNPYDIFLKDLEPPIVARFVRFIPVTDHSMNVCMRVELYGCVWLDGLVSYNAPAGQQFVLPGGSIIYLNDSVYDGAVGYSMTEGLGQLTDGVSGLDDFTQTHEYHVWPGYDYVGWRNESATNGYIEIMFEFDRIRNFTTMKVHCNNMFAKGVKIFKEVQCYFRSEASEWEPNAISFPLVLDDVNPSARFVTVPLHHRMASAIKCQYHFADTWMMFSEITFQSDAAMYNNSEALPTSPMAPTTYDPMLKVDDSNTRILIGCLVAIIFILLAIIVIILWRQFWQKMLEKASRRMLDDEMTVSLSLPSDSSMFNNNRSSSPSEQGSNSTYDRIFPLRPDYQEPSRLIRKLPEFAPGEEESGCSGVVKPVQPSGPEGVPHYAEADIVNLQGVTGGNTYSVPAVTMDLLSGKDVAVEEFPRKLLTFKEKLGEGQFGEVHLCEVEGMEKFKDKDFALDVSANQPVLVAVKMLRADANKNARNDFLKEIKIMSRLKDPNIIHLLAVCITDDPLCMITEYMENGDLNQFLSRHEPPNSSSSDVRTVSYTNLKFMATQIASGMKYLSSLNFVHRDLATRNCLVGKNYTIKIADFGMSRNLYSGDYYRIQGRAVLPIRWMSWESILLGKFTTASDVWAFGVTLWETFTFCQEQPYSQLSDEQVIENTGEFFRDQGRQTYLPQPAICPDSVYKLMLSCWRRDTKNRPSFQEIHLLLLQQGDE
Protocol: as §1

[3] = target: T3, CHK1(h) (Homo sapiens, UniProt O14757); conditions: read-out: residual kinase activity CHK1(h)
T3 construct: purchased Eurofins KinaseProfiler
T3 sequence (O14757 1-476): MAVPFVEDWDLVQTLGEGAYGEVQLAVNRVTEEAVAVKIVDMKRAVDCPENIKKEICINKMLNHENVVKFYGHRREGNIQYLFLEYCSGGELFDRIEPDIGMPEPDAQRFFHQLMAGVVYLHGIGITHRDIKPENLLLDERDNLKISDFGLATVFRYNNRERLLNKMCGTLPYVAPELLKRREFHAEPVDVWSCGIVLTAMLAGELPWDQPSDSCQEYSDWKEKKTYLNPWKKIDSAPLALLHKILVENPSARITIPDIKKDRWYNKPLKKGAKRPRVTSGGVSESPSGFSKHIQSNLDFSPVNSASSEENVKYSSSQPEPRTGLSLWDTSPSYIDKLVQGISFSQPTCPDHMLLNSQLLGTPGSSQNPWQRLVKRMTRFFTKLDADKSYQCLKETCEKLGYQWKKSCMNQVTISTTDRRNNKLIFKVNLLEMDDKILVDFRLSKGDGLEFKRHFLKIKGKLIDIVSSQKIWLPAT
Protocol: as §1

[4] = target: T4, ZIPK(h) (Homo sapiens, UniProt O43293); conditions: read-out: residual kinase activity ZIPK(h)
T4 construct: purchased Eurofins KinaseProfiler
Protocol: as §1

[5] = target: T5, LKB1(h) (Homo sapiens, UniProt Q15831); conditions: read-out: residual kinase activity LKB1(h)
T5 construct: purchased Eurofins KinaseProfiler
T5 sequence (Q15831 1-433): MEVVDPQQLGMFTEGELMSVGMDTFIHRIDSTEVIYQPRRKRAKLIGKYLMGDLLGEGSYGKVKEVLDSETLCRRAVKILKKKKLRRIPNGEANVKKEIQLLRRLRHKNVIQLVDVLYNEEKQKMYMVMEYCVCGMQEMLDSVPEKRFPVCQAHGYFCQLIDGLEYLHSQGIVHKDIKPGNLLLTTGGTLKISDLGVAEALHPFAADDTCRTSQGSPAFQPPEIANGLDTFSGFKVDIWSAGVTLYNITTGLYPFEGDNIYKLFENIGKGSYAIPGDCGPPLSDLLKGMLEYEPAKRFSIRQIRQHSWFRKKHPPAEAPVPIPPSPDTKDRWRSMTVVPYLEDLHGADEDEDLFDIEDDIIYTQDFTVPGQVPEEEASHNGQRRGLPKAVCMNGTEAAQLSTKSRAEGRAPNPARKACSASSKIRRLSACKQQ
T5 sequence (Q7RTN6 1-431 partner): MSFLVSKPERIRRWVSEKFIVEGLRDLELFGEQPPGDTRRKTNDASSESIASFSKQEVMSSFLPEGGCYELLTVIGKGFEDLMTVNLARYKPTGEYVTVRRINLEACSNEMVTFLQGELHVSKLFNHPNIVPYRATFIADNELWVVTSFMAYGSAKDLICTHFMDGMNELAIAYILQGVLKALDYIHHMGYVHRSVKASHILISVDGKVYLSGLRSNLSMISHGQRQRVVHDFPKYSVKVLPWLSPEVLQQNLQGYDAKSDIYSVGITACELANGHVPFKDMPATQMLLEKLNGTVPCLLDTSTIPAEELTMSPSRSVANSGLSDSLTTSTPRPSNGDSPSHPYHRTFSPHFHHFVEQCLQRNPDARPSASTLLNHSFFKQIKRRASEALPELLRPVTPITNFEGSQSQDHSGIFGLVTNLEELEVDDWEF
T5 sequence (Q9Y376 1-341 partner): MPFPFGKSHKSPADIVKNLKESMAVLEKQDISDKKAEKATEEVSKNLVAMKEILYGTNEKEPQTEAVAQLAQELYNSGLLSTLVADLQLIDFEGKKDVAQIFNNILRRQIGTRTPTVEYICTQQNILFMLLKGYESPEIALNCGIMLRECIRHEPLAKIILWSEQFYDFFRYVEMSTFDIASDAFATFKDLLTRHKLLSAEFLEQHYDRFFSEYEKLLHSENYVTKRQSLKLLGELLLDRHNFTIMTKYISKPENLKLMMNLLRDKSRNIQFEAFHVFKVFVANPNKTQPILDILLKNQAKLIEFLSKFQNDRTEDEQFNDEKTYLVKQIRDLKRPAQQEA
Protocol: as §1

[6] = target: T6, PDGFRα(h) (Homo sapiens, UniProt P16234); conditions: read-out: residual kinase activity PDGFRα(h)
T6 construct: purchased Eurofins KinaseProfiler
Protocol: as §1

T6 sequence (P16234 24-1089): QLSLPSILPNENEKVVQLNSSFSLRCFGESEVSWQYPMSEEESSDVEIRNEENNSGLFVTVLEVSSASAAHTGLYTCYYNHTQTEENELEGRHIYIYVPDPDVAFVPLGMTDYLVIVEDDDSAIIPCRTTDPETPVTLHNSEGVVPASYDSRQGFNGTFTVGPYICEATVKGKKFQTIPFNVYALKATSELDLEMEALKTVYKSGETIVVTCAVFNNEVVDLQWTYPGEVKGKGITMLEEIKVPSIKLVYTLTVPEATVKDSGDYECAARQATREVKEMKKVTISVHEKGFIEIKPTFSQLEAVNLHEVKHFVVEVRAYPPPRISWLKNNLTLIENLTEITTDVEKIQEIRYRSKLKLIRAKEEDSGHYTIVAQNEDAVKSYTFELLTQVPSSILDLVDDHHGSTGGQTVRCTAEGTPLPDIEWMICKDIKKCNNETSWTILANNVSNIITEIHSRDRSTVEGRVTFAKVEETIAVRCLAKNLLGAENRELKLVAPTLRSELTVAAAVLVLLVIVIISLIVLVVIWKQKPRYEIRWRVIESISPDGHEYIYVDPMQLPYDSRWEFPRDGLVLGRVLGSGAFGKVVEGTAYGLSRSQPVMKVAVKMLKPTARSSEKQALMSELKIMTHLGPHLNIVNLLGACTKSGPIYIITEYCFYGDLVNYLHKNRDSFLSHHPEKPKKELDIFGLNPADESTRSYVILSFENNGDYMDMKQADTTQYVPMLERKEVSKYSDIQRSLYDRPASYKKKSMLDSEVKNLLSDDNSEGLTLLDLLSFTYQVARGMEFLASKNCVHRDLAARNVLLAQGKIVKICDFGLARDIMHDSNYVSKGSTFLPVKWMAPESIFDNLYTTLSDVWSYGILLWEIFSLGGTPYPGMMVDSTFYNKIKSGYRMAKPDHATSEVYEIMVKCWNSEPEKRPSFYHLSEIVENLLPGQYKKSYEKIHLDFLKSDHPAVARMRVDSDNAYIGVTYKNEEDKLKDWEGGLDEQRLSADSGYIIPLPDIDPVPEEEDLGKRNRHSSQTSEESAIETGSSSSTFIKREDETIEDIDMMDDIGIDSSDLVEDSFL
T1 sequence (P10721 26-976): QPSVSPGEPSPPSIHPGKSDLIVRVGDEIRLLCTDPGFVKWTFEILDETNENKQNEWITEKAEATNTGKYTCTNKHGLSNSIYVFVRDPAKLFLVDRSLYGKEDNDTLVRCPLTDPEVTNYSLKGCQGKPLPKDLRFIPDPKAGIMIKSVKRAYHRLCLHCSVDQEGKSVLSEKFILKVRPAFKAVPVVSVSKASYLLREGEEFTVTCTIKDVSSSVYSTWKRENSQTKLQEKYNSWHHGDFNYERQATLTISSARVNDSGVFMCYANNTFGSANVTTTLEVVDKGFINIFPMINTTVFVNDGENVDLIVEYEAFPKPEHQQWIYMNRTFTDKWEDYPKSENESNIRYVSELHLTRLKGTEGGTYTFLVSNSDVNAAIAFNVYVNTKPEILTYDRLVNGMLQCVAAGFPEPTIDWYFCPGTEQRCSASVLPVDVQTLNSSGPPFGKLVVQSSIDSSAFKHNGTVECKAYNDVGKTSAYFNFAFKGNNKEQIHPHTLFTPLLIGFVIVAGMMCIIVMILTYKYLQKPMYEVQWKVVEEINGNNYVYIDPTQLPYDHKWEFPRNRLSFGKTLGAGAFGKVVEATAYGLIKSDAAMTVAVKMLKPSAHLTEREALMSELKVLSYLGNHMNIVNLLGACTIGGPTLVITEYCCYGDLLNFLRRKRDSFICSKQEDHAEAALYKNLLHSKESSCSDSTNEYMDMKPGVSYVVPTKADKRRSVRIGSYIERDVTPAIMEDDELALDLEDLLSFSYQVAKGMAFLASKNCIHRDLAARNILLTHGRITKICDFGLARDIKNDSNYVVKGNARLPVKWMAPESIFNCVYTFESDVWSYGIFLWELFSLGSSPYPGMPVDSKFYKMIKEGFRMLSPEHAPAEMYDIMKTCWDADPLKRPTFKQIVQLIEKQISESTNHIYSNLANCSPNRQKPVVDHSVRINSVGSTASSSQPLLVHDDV
T4 sequence (O43293 whole entry): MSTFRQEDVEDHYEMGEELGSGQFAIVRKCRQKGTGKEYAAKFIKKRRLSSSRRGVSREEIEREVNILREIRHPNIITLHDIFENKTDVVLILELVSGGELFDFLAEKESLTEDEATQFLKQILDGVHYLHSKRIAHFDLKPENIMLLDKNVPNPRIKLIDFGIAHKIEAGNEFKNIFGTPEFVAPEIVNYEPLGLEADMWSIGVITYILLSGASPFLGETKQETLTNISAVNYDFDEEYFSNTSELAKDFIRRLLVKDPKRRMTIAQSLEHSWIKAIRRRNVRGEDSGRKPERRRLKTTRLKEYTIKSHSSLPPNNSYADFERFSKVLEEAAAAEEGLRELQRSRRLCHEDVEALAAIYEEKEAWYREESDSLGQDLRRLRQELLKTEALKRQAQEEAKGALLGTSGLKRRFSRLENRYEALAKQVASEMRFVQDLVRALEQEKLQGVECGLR

Row | remaining activity at 1 µM [1] | remaining activity at 1 µM [2] | remaining activity at 1 µM [3] | remaining activity at 1 µM [4] | remaining activity at 1 µM [5] | remaining activity at 1 µM [6] | SMILES
1 | 80% | 94% | 58% | 97% | 89% | 79% | CNC(=O)c1ccc(Nc2ncc(C(F)(F)F)c(NCc3nccnc3N(C)S(C)(=O)=O)n2)cc1 [VS-6063, Defactinib]
2 | 93% | 138% | 85% | 93% | 98% | 101% | CONC(=O)c1ccccc1Nc1cc(Nc2cc(C)nn2C(C)C)ncc1Cl [GSK2256098]

Row | SMILES | remaining activity at 1 µM [1] | remaining activity at 1 µM [2] | remaining activity at 1 µM [3] | remaining activity at 1 µM [4] | remaining activity at 1 µM [5] | remaining activity at 1 µM [6]
3 | CNC(=O)c1cccc(C)c1Nc1nc(Nc2ccc(N3CCN(C4C5CC6CC4CC(O)(C6)C5)CC3)cc2OC)ncc1C(F)(F)F (stereo not drawn) [SJP1602, 2-((2-((4-(4-((2s,5r)-5-hydroxyadamantan-2-yl)piperazin-1-yl)-2-methoxyphenyl)amino)-5-(trifluoromethyl)pyrimidin-4-yl)amino)-N,3-dimethylbenzamide] | 97% | 102% | 62% | 100% | 96% | 97%
